Test: Flow properties of co-milled blends, assessed visually
Assay type: physicochemical
Details: visual score between 1 and 6, where 6 is a free-flowing powder
Experimental: Flow properties were assessed visually, and given a score between 1 and 6, where 6 is a free-flowing powder.

Which Flow score does the source give for `O=C(O)c1ccc(-n2nc(-c3ccccc3O)nc2-c2ccccc2O)cc1` [Deferasirox raw material, 4-[3,5-bis(2-hydroxyphenyl)-[1,2,4]triazol-1-yl]benzoic acid] here?
Its Flow score is 1.

Source: US20090142395A1, “DEFERASIROX PHARMACEUTICAL COMPOSITIONS” (priority 2007, published 2009)
